Data: patent US7250441B2, “Carbazole and cyclopentaindole derivatives to treat infection with Hepatitis C virus” (priority 2004, dated 2007)

biological target: T1, HCV RdRp NS5B d21BK (NS5B from the BK strain, genotype 1b) (Hepatitis C virus genotype 1b, UniProt P26663); assay: Hepatitis C polymerase inhibition assay, radioactive nucleotide incorporation with filter capture; type: biochemical
T1 construct: NS5B from the BK strain (genotype 1b) is expressed in E coli as a protein in which the 21 C-terminal amino acids are replaced; made in house; host or cells: E. coli
Source text: The ability of the compounds of formula (I) to inhibit Hepatitis C Polymerase was established by the following experimental procedure.
NS5B from the BK strain (genotype 1b) is expressed in E coli as a protein in which the 21 C-terminal amino acids are replaced with a short linker and a hexahistidine tag ([…]). The purified protein is mixed with radioactive nucleotides and allowed to replicate a heteropolymeric RNA substrate, primed by an endogenous short hairpin, resulting in an approximately 760 nt product. The radioactive product is captured on a filter and quantitated after removal of the unincorporated nucleotides.
(1) Compounds 10 μl at 10 μg/ml in 15% dimethylsulfoxide (DMSO)
When starting from 100 μg/ml compound stock in 1% DMSO, 5 μl 30% DMSO is dispensed per well. Next, 5 μl compound (100 μg/ml) is dispensed per well.
When starting from 50 μg/ml compound stock in 15% DMSO, 10 μl compound is added per well.
20 μl enzyme mix is added into each well of the assay plate. The compound and enzyme are incubated at room temperature for 15 minutes.
(3) Template mix (prepared in advance)
A tube of RNA (5 μg/tube stored in 75% ethanol and 0.3 M sodium acetate) is microcentrifuged for 20 minutes at 4° C. (one tube supplies 1-1.5 plates). Ethanol is removed from the tube by gently inverting the tube. The RNA is vacuum dried and re-suspended in 1 ml of DEPC water in a tightly capped tube. To dissolve RNA, the RNA solution is incubated on ice for ˜60 minutes and gently vortexed. It is spun briefly to ensure all RNA solution at the bottom of the tube before opening cap. The RNA solution is then gently transferred into a 5 ml or larger tube. Another 3 ml of DEPC water is added to obtain a total of 4 ml of volume.
The following volumes of reagents are added:
20 μl template mix per reaction is added (i.e. 20 ng of pOF per reaction or ˜3 nM)
(4) The reaction is incubated at room temperature (22-25° C.) for 2 hours.
(5) The reaction is quenched by adding 50 μl of 170 mM EDTA.
Final concentration of EDTA is 85 mM.
(6) The filters of Millipore multiscreen assay plate is pre-wet by adding 200 μl of 0.5 M sodium phosphate buffer, pH 7.0 into each well. This stands at room temperature for 2-3 minutes.
(7) The multiscreen filter plate is placed onto a Millipore Manifold under vacuum to allow buffer to flow through. After the vacuum is turned off, 80 μl of the reaction product is transferred into each well of the filter plate. This stands for 2-3 minutes prior to turning on the vacuum again to filter the reaction product.
(8) The vacuum is then removed. 200 μl of 0.5 M sodium phosphate buffer is added, pH 7.0, into each well. The vacuum is then turned on.
Step (8) is repeated three more times.
(9) Next the polypropylene bottom is removed, and the filter is spot dried with a paper towel. The filter plate is air-dried on a bench for 1 hour before adding 40 μl Super Mix scintillant. The top of the plate is sealed with a tape and the plate is placed into a Packard carrier or micro-beta carrier.
(10) The plate is counted using a Packard Topcount or micro-beta counter. Count (for example using Program 10) for ^33P in Top count or ^33P program in micro-beta.
The percent inhibition is calculated after background subtraction as a percent reduction of activity relative to the positive control (average value of the plate excluding the negative controls). For the primary screen hits were chosen as showing >75% inhibition.
See, Ferrari et al. 1999. J. Virology 73:1649-1654: “Characterization of soluble Hepatitis C virus RNA-dependent RNA polymerase expressed in E. coli and Takamizawa et al 1991” and J. Virology 65:1105-1113: “Structure and characterization of Hepatitis C virus genome isolated from human carriers,” both reference are hereby incorporated by reference.

T1 sequence (P26663 2420-2989): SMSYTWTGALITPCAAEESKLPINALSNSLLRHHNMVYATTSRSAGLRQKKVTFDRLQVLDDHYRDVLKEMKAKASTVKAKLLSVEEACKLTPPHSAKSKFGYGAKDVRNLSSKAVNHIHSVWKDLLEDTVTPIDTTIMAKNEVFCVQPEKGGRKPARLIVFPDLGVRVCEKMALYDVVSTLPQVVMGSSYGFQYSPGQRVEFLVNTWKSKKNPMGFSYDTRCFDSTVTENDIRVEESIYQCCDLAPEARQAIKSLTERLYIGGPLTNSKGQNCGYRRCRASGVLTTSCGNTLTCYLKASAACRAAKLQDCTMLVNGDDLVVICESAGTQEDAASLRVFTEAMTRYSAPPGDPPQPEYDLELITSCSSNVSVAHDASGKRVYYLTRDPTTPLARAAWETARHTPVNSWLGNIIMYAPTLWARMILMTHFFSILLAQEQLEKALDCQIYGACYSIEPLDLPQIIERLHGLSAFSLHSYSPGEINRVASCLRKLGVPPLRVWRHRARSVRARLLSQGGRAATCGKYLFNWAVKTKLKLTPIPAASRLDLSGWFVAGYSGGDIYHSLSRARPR

Structure (SMILES)	IC50
C=CCC1(C(=O)O)CCc2c1[nH]c1c(Cl)ccc(Cl)c21 (centres unmarked) [Example 1, 3-Allyl-5,8-dichloro-1,2,3,4-tetrahydro-cyclopenta[b]indole-3-carboxylic acid]	1.2 µM
CCCCC1(C(=O)O)CCc2c1[nH]c1c(Cl)ccc(Cl)c21 (centres unmarked) [Example 2, 3-Butyl-5,8-dichloro-1,2,3,4-tetrahydro-cyclopenta[b]indole-3-carboxylic acid]	1.9 µM
CCCC1(C(=O)O)CCc2c1[nH]c1c(Cl)ccc(Cl)c21 (centres unmarked) [Example 3, 5,8-Dichloro-3-propyl-1,2,3,4-tetrahydro-cyclopenta[b]indole-3-carboxylic acid]	0.55 µM
CCCCC1(C(=O)O)CCc2c1[nH]c1c(C)ccc(Br)c21 (centres unmarked) [Example 4, 8-Bromo-3-butyl-5-methyl-1,2,3,4-tetrahydro-cyclopenta[b]indole-3-carboxylic acid]	6.7 µM
CCCCC1(C(=O)O)CCc2c1[nH]c1c(F)ccc(Br)c21 (centres unmarked) [Example 5, 8-Bromo-3-butyl-5-fluoro-1,2,3,4-tetrahydro-cyclopenta[b]indole-3-carboxylic acid]	5.8 µM
CCCCC1(C(=O)O)CCc2c1[nH]c1c(C)cc(F)c(Br)c21 (centres unmarked) [Example 6, 8-Bromo-3-butyl-7-fluoro-5-methyl-1,2,3,4-tetrahydro-cyclopenta[b]indole-3-carboxylic acid]	2.1 µM
CCCCC1(C(=O)O)CCc2c1[nH]c1c(C)cc(F)cc21 (centres unmarked) [Example 7, 3-Butyl-7-fluoro-5-methyl-1,2,3,4-tetrahydro-cyclopenta[b]indole-3-carboxylic acid]	9.1 µM
C=CCC1(C(=O)O)CCc2c1[nH]c1c(C)ccc(Br)c21 (centres unmarked) [Example 8, 3-Allyl-8-bromo-5-methyl-1,2,3,4-tetrahydro-cyclopenta[b]indole-3-carboxylic acid]	5.7 µM
C=CCC1(C(=O)O)CCc2c1[nH]c1c(F)ccc(Br)c21 (centres unmarked) [Example 9, 3-Allyl-8-bromo-5-fluoro-1,2,3,4-tetrahydro-cyclopenta[b]indole-3-carboxylic acid]	6.4 µM
C=CCC1(C(=O)O)CCc2c1[nH]c1c(C)cc(F)c(Br)c21 (centres unmarked) [Example 10, 3-Allyl-8-bromo-7-fluoro-5-methyl-1,2,3,4-tetrahydro-cyclopenta[b]indole-3-carboxylic acid]	3.2 µM
CCCC1(C(=O)O)CCc2c1[nH]c1c(C)ccc(Br)c21 (centres unmarked) [Example 11, 8-Bromo-5-methyl-3-propyl-1,2,3,4-tetrahydro-cyclopenta[b]indole-3-carboxylic acid]	1.9 µM
CCCC1(C(=O)O)CCc2c1[nH]c1c(F)ccc(Br)c21 (centres unmarked) [Example 12, 8-Bromo-5-fluoro-3-propyl-1,2,3,4-tetrahydro-cyclopenta[b]indole-3-carboxylic acid]	2.9 µM
CCCC1(C(=O)O)CCc2c1[nH]c1c(C)cc(F)c(Br)c21 (centres unmarked) [Example 13, 8-Bromo-7-fluoro-5-methyl-3-propyl-1,2,3,4-tetrahydro-cyclopenta[b]indole-3-carboxylic acid]	2 µM
C=CCC1(C(=O)O)CCc2c1[nH]c1c(F)ccc(C#N)c21 (centres unmarked) [Example 14, 3-Allyl-8-cyano-5-fluoro-1,2,3,4-tetrahydro-cyclopenta[b]indole-3-carboxylic acid]	14.5 µM
CCCCC1(C(=O)O)CCc2c1[nH]c1c(C)ccc(C#N)c21 (centres unmarked) [Example 15, 3-Butyl-8-cyano-5-methyl-1,2,3,4-tetrahydro-cyclopenta[b]indole-3-carboxylic acid]	4.6 µM
CCCCC1(C(=O)O)CCc2c1[nH]c1c(F)ccc(C#N)c21 (centres unmarked) [Example 16, 3-Butyl-8-cyano-5-fluoro-1,2,3,4-tetrahydro-cyclopenta[b]indole-3-carboxylic acid]	5.4 µM
CCCCC1(C(=O)O)CCc2c1[nH]c1c(C)cc(F)c(C#N)c21 (centres unmarked) [Example 17, 3-Butyl-8-cyano-7-fluoro-5-methyl-1,2,3,4-tetrahydro-cyclopenta[b]indole-3-carboxylic acid]	1.5 µM
